This note sets out measurements from patent publication US20240277873A1, “ULTRABRIGHT […] PROBES FOR DETECTION AND IMAGING” (Nanyang Technological University, priority 2021, published 2024).

SMILES strings stand for the structures.

The test system of one test is dorsal skins of mice. Nature of the test: Histopathologic, immunohistochemical and flow cytometry analyses of dorsal skins (IMQ psoriasis model). Particulars: fresh slides of dorsal skins, 2-day IMQ treatment, immunofluorescence. It is filed as in vivo, BALB/c mice. The procedure: The control group was treated with Vaseline (50 mg/d) and the IMQ-treatment group was applied with IMQ cream (60 mg/d, 5%) once a day. […] Probe BTPDNe (10 uM, 1 mM in DMSO) was thoroughly mixed with Aquaphor (˜10 mg) and applied for psoriasis imaging, followed by poly(methyl methacrylate) microneedle treatment for 1 min. Then, chemiluminescent signals at different time-points (0, 3, 5, 10, 15, 30, 45 and 60 min) after probe-treatment were recorded using IVIS system bioluminescence with acquiring time of 180 s. Until the third day, all the mice were sacrificed to collect tissue and blood for further experiments (hematoxylin and eosin (H&E) staining and flow cytometry analysis) as described in Example 11.
The dorsal skin samples were separated and soaked in 4% paraformaldehyde (4% PFA) for 12 h and immersed in 30% sucrose solution. The skin samples were stained by hematoxylin and eosin (H&E). Then, the samples were flash-frozen by liquid nitrogen, immobilized with optimal cutting temperature compound, and section slices ([…]). The thickness of epidermis was observed under a microscope (Nikon ECLIPSE 80i microscope). APC-Ly6G, as a neutrophil marker, was used to stain neutrophil cells and DAPI was applied for cell nucleus staining. The immunofluorescence was observed by Nikon ECLIPSE 80i microscope.
After performing in vivo chemiluminescence imaging of neutrophils using BTPDNe in psoriasis-bearing mice with 2 day IMQ treatment, fresh section slices from dorsal skins were stained with Ly6G. Immunofluorescence imaging of slices with activated BTPDNe in green color was observed upon excitation at 405 nm and emission at 500-550 nm, while red color from Ly6G was observed upon excitation from 633-647 nm and emission at 660 nm. The immunofluorescence imaging was acquired by Nikon ECLIPSE 80i microscope.
A general note: In flow cytometry, cells or beads pass a laser one at a time.

The target in the next test is T1, NE (Homo sapiens, UniProt P08246).
T1 sequence (P08246 30-267): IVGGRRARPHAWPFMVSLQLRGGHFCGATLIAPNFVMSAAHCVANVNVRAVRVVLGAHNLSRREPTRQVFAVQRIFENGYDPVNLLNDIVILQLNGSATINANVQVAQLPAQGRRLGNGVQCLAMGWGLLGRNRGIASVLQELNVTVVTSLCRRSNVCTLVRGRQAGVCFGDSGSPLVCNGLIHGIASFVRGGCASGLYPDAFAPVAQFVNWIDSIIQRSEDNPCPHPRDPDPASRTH
Nature of the test: Enzyme kinetics study of NE with BTPDNe (Michaelis-Menten, HPLC). It is filed as biochemical. Particulars: NE 0.1 U/mL, BTPDNe 2-80 μM. The procedure:
To carry out the kinetic assay, various concentrations of BTPDNe (2, 5, 10, 20, 40 and 80 μM) were incubated with NE (0.1 U/mL) at 37° C. for 10 min in 50 mM Tris, 1 M NaCl, 0.05% (w/v) Brij-35, and at pH=7.5. After incubation, quantification analyses were determined by HPLC. The initial reaction velocity was calculated, plotted against the concentration of BTPDNe, and fitted to a Michaelis-Menten curve. Finally, the kinetic parameters were calculated by Michaelis Menten equation: […]
where v is initial velocity, and [S] is substrate concentration.

In the case of `COC1(c2ccc(-c3nc4ccccc4s3)c(OCc3ccc(NC(=O)[C@@H](NC(=O)[C@@H]4CCCN4C(=O)[C@H](C)NC(=O)[C@H](C)NC(C)=O)C(C)C)cc3)c2)OOC12C1CC3CC(C1)CC2C3` (stereo partly shown) [BTPDNe], the “colocalization of probe activation with neutrophil marker” value with dorsal skins of mice is recorded as “colocalized well with APC-Ly6G”. For the same compound, the enzyme kinetic coefficient on NE was found to be 22000 M⁻¹ s⁻¹. In addition, at NE (37° C., 10 min, pH 7.5), the Kcat turned out to be 1.15 s⁻¹ and the Km (as a rule, the concentration of substrate that gives half-maximal velocity) came out at 52.2 µM.
